Where two headings read alike, the source gives them in different places.
Legend:
Type in all cases: cell-based
[1] = system: IGROV-ET; test: SRB colorimetric cell growth inhibition assay, IGROV-ET (ET-743 resistant); conditions: Homo sapiens, IGROV-ET; for GI50: GI=growth inhibition, read-out: GI50 IGROV-ET; for CC50: read-out: LC50 IGROV-ET; for IC (TGI): read-out: TGI IGROV-ET
How it was run: (§1)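 Sulforhodamine B colorimetric readout measured cell growth and viability after continuous compound exposure of human cancer cell lines in 96-well plates. Triplicate wells gave mean ± SD, from which growth inhibition (GI), cytostatic total growth inhibition (TGI) and cytotoxic cell killing (LC) were calculated.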

[2] = system: DU-145; test: SRB colorimetric cell growth inhibition assay, DU-145; conditions: Homo sapiens, DU-145, DU-145; for GI50: GI=growth inhibition, read-out: GI50 DU-145; for CC50: read-out: LC50 DU-145; for IC (TGI): read-out: TGI DU-145
How it was run: as §1

[3] = system: PANC-1; test: SRB colorimetric cell growth inhibition assay, PANC-1; conditions: Homo sapiens, PANC-1, PANC-1; for GI50: GI=growth inhibition, read-out: GI50 PANC-1; for CC50: read-out: LC50 PANC-1; for IC (TGI): read-out: TGI PANC-1
How it was run: as §1

[4] = system: K-562; test: SRB colorimetric cell growth inhibition assay, K-562; conditions: Homo sapiens, K562, K-562; for GI50: GI=growth inhibition, read-out: GI50 K-562; for CC50: read-out: LC50 K-562; for IC (TGI): read-out: TGI K-562
How it was run: as §1

[5] = system: A-549; test: SRB colorimetric cell growth inhibition assay, A-549; conditions: Homo sapiens, A549, A-549; for GI50: GI=growth inhibition, read-out: GI50 A-549; for CC50: read-out: LC50 A-549; for IC (TGI): read-out: TGI A-549
How it was run: as §1

[6] = system: LoVo; test: SRB colorimetric cell growth inhibition assay, LoVo; conditions: Homo sapiens, LoVo; for GI50: GI=growth inhibition, read-out: GI50 LOVO; for CC50: read-out: LC50 LOVO; for IC (TGI): read-out: TGI LOVO
How it was run: as §1

[7] = system: HT-29; test: SRB colorimetric cell growth inhibition assay, HT-29; conditions: Homo sapiens; for CC50: read-out: LC50 HT-29; for GI50: GI=growth inhibition, read-out: GI50 HT-29; for IC (TGI): read-out: TGI HT-29
How it was run: as §1

[8] = system: SK-BR-3; test: SRB colorimetric cell growth inhibition assay, SK-BR-3; conditions: Homo sapiens, SK-BR-3, SK-BR-3; for GI50: GI=growth inhibition, read-out: GI50 SK-BR-3; for CC50: read-out: LC50 SK-BR-3; for IC (TGI): read-out: TGI SK-BR-3
How it was run: as §1

[9] = system: IGROV; test: SRB colorimetric cell growth inhibition assay, IGROV; conditions: Homo sapiens, IGROV; for GI50: GI=growth inhibition, read-out: GI50 IGROV; for CC50: read-out: LC50 IGROV; for IC (TGI): read-out: TGI IGROV
How it was run: as §1

[10] = system: LoVo-Dox; test: SRB colorimetric cell growth inhibition assay, LoVo-Dox (MDR); conditions: Homo sapiens, LOVO-DOX; for GI50: GI=growth inhibition, read-out: GI50 LOVO-DOX; for CC50: read-out: LC50 LOVO-DOX; for IC (TGI): read-out: TGI LOVO-DOX
How it was run: as §1

[11] = system: SK-MEL-28; test: SRB colorimetric cell growth inhibition assay, SK-MEL-28; conditions: Homo sapiens; for GI50: GI=growth inhibition, read-out: GI50 MEL-28; for CC50: read-out: LC50 MEL-28; for IC (TGI): read-out: TGI MEL-28
How it was run: as §1

[12] = system: SKOV-3; test: SRB colorimetric cell growth inhibition assay, SKOV-3; conditions: Homo sapiens
Text: Inhibition of Cell Growth by Colorimetric Assay.
A colorimetric type of assay, using sulforhodamine B (SRB) reaction has been adapted for a quantitative measurement of cell growth and viability (following the technique described by P. A. Skehan, et al., J. Natl. Cancer Inst. 1990, 82, 1107-1112).
This form of assay employs 96 well cell culture microplates of 9 mm diameter (T. Mosmann et al., J. of Immunological Methods 1983, 65, 55-63; G. T. Faircloth et al., J. of Tissue and Culture Methods 1988, 11, 201-205).
Most of the cell lines are obtained from American Type Culture Collection (ATCC) derived from different human cancer types.
The values for mean +/− SD of data from triplicate wells are calculated. Some parameters for cellular responses can be calculated: GI=growth inhibition, TGI=total growth inhibition (cytostatic effect) and LC=cell killing (cytotoxic effect).

[13] = system: LNCaP; test: SRB colorimetric cell growth inhibition assay, LNCaP; conditions: Homo sapiens, LNCaP, LN-caP
How it was run: as §1

[14] = system: HeLa-APL; test: SRB colorimetric cell growth inhibition assay, HeLa-APL (aplidine resistant); conditions: Homo sapiens, HELA-APL
How it was run: as §1

[15] = system: HeLa; test: SRB colorimetric cell growth inhibition assay, HeLa; conditions: Homo sapiens, HeLa
How it was run: as §1

[16] = LC=cell killing (cytotoxic effect)
[17] = TGI=total growth inhibition (cytostatic effect)
[18] = cell killing (cytotoxic effect)
[19] = total growth inhibition (cytostatic effect)

COc1cc(-c2c3c4cc(OC)c(OC(=O)[C@@H](N)CC(C)C)cc4oc(=O)c3n3ccc4c(OC(=O)[C@@H](N)CC(C)C)c(OC)c(OC)cc4c23)ccc1OC(=O)[C@@H](N)CC(C)C [Compound 45]
GI50 [1]: 2.58 µM
CC50 [1, 16]: 11.5 µM
IC (TGI) [1, 17]: 8.07 µM
GI50 [2]: 0.105 µM
CC50 [2, 16]: 11.5 µM
IC (TGI) [2, 17]: 0.549 µM
GI50 [3]: 2.03 µM
CC50 [3, 16]: 11.5 µM
IC (TGI) [3, 17]: 9.75 µM
GI50 [4]: 0.315 µM
CC50 [4, 16]: 8.79 µM
IC (TGI) [4, 17]: 1.73 µM
GI50 [5]: 4.35 µM
CC50 [5, 16]: 11.5 µM
IC (TGI) [5, 17]: 11.5 µM
GI50 [6]: 0.771 µM
CC50 [6, 16]: 11.5 µM
IC (TGI) [6, 17]: 6.71 µM
CC50 ([7]; HT-29, HT-29, LC=cell killing (cytotoxic effect)): 11.5 µM
GI50 ([7]; HT-29): 11.5 µM
IC (TGI) ([7]; HT-29, TGI=total growth inhibition (cytostatic effect)): 11.5 µM
GI50 [8]: 0.414 µM
CC50 [8, 16]: 11.5 µM
IC (TGI) [8, 17]: 1.58 µM
GI50 [9]: 1.57 µM
CC50 [9, 16]: 10.9 µM
IC (TGI) [9, 17]: 4.12 µM
GI50 [10]: 0.778 µM
CC50 [10, 16]: 11.5 µM
IC (TGI) [10, 17]: 4.51 µM
GI50 ([11]; SK-MEL-28, MEL-28): 0.898 µM
CC50 ([11]; SK-MEL-28, MEL-28, LC=cell killing (cytotoxic effect)): 11.5 µM
IC (TGI) ([11]; SK-MEL-28, MEL-28, TGI=total growth inhibition (cytostatic effect)): 11.5 µM
GI50 ([12]; SK-OV-3, SKOV-3, GI=growth inhibition, read-out: GI50 SKOV-3): 0.175 µM
CC50 ([12]; SK-OV-3, read-out: LC50 SKOV-3): 11.5 µM
IC (TGI) ([12]; SK-OV-3, SKOV-3, TGI=total growth inhibition (cytostatic effect), read-out: TGI SKOV-3): 2.2 µM

COc1cc(-c2c3c4cc(OC)c(OC(=O)[C@H](C)NC(=O)[C@H](C)N)cc4oc(=O)c3n3ccc4c(OC(=O)[C@H](C)NC(=O)[C@H](C)N)c(OC)c(OC)cc4c23)ccc1OC(=O)[C@H](C)NC(=O)[C@H](C)N [Compound 5]
GI50 [1]: 0.212 µM
CC50 [1, 18]: 6.09 µM
IC (TGI) [1, 19]: 1.06 µM
GI50 [2]: 0.0356 µM
CC50 [2, 18]: 0.575 µM
IC (TGI) [2, 19]: 0.119 µM
GI50 [3]: 0.418 µM
CC50 [3, 18]: 4.51 µM
IC (TGI) [3, 19]: 1.64 µM
GI50 [4]: 0.077 µM
CC50 [4, 18]: 7.4 µM
IC (TGI) [4, 19]: 1.1 µM
GI50 [5]: 0.121 µM
CC50 [5, 18]: 4.65 µM
IC (TGI) [5, 19]: 1.02 µM
GI50 [6]: 0.345 µM
CC50 [6, 18]: 4.14 µM
IC (TGI) [6, 19]: 1.06 µM
GI50 ([7]; HT-29, HT-29): 1.7 µM
CC50 ([7]; HT-29, HT-29, cell killing (cytotoxic effect)): 6.16 µM
IC (TGI) ([7]; HT-29, HT-29, total growth inhibition (cytostatic effect)): 3.24 µM
GI50 ([13]; GI=growth inhibition, read-out: GI50 LN-caP): 0.223 µM
CC50 ([13]; cell killing (cytotoxic effect), read-out: LC50 LN-caP): 3.62 µM
IC (TGI) ([13]; total growth inhibition (cytostatic effect), read-out: TGI LN-caP): 1.05 µM
GI50 [8]: 0.241 µM
CC50 [8, 18]: 3.54 µM
IC (TGI) [8, 19]: 0.595 µM
GI50 [9]: 0.247 µM
CC50 [9, 18]: 4.54 µM
IC (TGI) [9, 19]: 0.855 µM
GI50 ([14]; GI=growth inhibition, read-out: GI50 HELA-APL): 0.31 µM
CC50 ([14]; cell killing (cytotoxic effect), read-out: LC50 HELA-APL): 5.55 µM
IC (TGI) ([14]; total growth inhibition (cytostatic effect), read-out: TGI HELA-APL): 1.71 µM
GI50 ([15]; GI=growth inhibition, read-out: GI50 HELA): 0.124 µM
CC50 ([15]; cell killing (cytotoxic effect), read-out: LC50 HELA): 3.1 µM
IC (TGI) ([15]; total growth inhibition (cytostatic effect), read-out: TGI HELA): 1.12 µM
GI50 [10]: 0.409 µM
CC50 [10, 18]: 3.4 µM
IC (TGI) [10, 19]: 1.1 µM
GI50 ([11]; SK-MEL-28, MEL-28): 0.0629 µM
CC50 ([11]; SK-MEL-28, MEL-28, cell killing (cytotoxic effect)): 1.12 µM
IC (TGI) ([11]; SK-MEL-28, MEL-28, total growth inhibition (cytostatic effect)): 0.249 µM

From US7396837B2, “Antitumoral analogs of lamellarins” (Pharma Mar, S.A.U., priority 2002, dated 2008)
